The values that follow come from US9687553B2, “Polymeric nanocarriers with linear dual response mechanism” (priority 2010, dated 2017).

A short description of data set [1]: Relaxivity versus time, bench top contrast agent analyzer. The data set is classed as physicochemical.
Text: To probe the relationship between degradation and relaxivity further, real-time T1 measurements were taken of the polymer solutions using a Bruker minispec mq60 bench top contrast agent analyzer. This machine is able to take rapid T1 measurements over a long duration, allowing for real-time data to be collected. Following data collection, a relationship between T1 and relaxivity can be made, and the relaxivity can be plotted versus time. The relaxivity measurements were then normalized for direct comparison between the two polymer CAs.
Samples were first incubated at 37° C. and various pH values and then measured continuously over time.
To investigate the change in relaxivity over time at different pH values further, continuous T1 measurements were taken using a bench top contrast agent analyzer. Using this machine, the T1 time of a 200 μl solution in an NMR tube is able to be measured. Furthermore, the measurement duration is short, allowing for a more real-time investigation of the T1 time. Finally, the software allows for sequential measurements to be performed, allowing for over 24 h of continuous T1 data to be taken.
Solutions of both polymer contrast agents were prepared at the desired pH values and pre-incubated for 5 min at 37° C. prior to T1 measurements. […]
For data set [2] the following is noted: Gd chelate; cited from earlier work.
For another data set, the system named is HCT116 cells. Put plainly: Transfection and EGFP expression, microscopy and flow cytometry. It is filed as cell-based. The following applies: 300 nM bafilomycin A1, nanocarrier delivery. As for the experimental part: Expression and transfection efficiency of the HCT116 cells was tested by incubating them for 4 hr before washing excess nanocarriers and incubating cells in fresh media for 48 hr. […] PLGA-treated cells only had 2% of the cell population with signal intensity above background.
Immediate burst degradation and release of DNA from the dual pH-responsive nanocarriers only occurs in an environment of low pH. The endosome's low pH offers the appropriate stimulus to solubilize the polymer, resulting in an accelerated degradation via ketal hydrolysis. Bafilomycin A1, an inhibitor of V-ATPase, blocks the acidification of endosomes and has been previously used to characterize the mechanism of release of pH dependent polyplexes and nanocarriers. […] EGFP expression via nanocarrier delivery in HCT116 cells, measured by mean fluorescence, was affected by the presence of bafilomycin A1, causing 66% reduction in signal relative to non-treated cells (FIG. 37). […]
HCT116 cells were plated at a ˜50% density in a 24 well culture plate and allowed to attach overnight. […] The cells were then incubated for 48 hours and subsequently analyzed by fluorescence microscopy (Nikon) or flow-cytometry (Accuri C6) to detect green fluorescence. […] For flow cytometry, cells were first trysonized for […] followed by two washes with PBS and analyzed immediately. […]

Regarding `O=C([O-])CN(CCN(CC(=O)[O-])CC(=O)O)CCN(CC(=O)[O-])CC(=O)O.[Gd+3]` [Gd-DTPA], in data set [1], the relaxivity as measured amounted to 3.64 ± 0.12 mM⁻¹ s⁻¹. The “stability constant (log K)” value in data set [2] was 22.46.

Consider `CO/C1=C\C(C)=C\[C@@H](C)[C@@H](O)[C@@H](C)C/C(C)=C/C=C/[C@H](OC)[C@@H]([C@@H](C)[C@@H](O)[C@H](C)[C@@]2(O)C[C@@H](O)[C@H](C)[C@@H](C(C)C)O2)OC1=O` [bafilomycin A1], for which the “reduction in EGFP signal (mean fluorescence) relative to non-treated cells” value in the data set on HCT116 cells was 66%. As for Gd-DTPA-bisamide, the “stability constant (log K)” value in data set [2] is 16.84.
